Measurements published in publication PMC10821019, “F16 Hybrids Derived from Steviol or Isosteviol Are Accumulated in the Mitochondria of Tumor Cells and Overcome Drug Resistance” (Molecules, 2024).

Legend:
[1] = system: A2780 (ovarian carcinoma); test: SRB cytotoxicity assay, A2780; type: cell-based, human; conditions: for selectivity index 1 (SI 1): CCD18Co/A2780; for IC50: SRB assay, 72 h treatment, mean n = 3, SD 5-10%
Description: (§1) All compounds were screened for their cytotoxic activity and tumor cell selectivity using our standard model, previously described, comprising a selection of human tumor cell lines representing different solid tumor entities and non-malignant human fibroblasts (CCD18Co) including the cell line pair A2780/A2780cis, a well-known model of acquired drug resistance.
(§2) Reagents were bought from commercial suppliers and used without further purification. The solvents were dried according to the usual procedures. TLC was performed on silica gel (Macherey-Nagel, detection with UV absorption; Macherey-Nagel, Düren, Germany). […] Numbering in the NMR spectra: 1–20 (diterpene core), 21–24 for O-(CH2)n-N fragment followed by the pyridinium ring, the ethenyl moiety and the indole moiety. […] IR spectra were recorded on a Perkin-Elmer Spectrum Two (UATR Two Unit, Perkin-Elmer GmbH, Rodgau, Germany). […] Both media were supplemented with 10% fetal bovine serum (Biowest, Nuaillé, France) and 1% penicillin-streptomycin (Sigma-Aldrich).
(§3) Cytotoxic activities of compounds were analyzed using the SRB cytotoxicity assay. Cells were seeded in 96-well plates and after 24 h were treated with serial dilutions of compounds for 72 h. All subsequent steps were performed according to the previously described SRB assay protocol. Dose–response curves and calculation of IC50 values, including standard deviations, were carried out using GraphPad Prism8.

A549 (lung carcinoma) = test: SRB cytotoxicity assay, A549; type: cell-based, human; conditions: for selectivity index 2 (SI 2): CCD18Co/A549; for IC50: SRB assay, 72 h treatment, mean n = 3, SD 5-10%
Description: as §1, §2, §3

[2] = system: A2780cis (resistant derivative of A2780); test: SRB cytotoxicity assay, A2780cis; type: cell-based, human; conditions: for IC50: SRB assay, 72 h treatment, mean n = 3, SD 5-10%; for resistance index (RI): quotient IC50 values A2780cis/A2780
Description: as §1, §2, §3

[3] = system: HT29 (colorectal carcinoma); test: SRB cytotoxicity assay, HT29; type: cell-based, human; conditions: mean n = 3, SD 5-10%
Description: as §1, §2, §3

MCF7 (breast carcinoma) = test: SRB cytotoxicity assay, MCF7; type: cell-based, human; conditions: mean n = 3, SD 5-10%
Description: as §1, §2, §3

[4] = system: CCD18Co (non-malignant human fibroblasts); test: SRB cytotoxicity assay, CCD18Co; type: cell-based; conditions: 72 h treatment, mean n = 3, SD 5-10%
Description: as §1, §2, §3

[5] = SRB cytotoxicity assay, CCD18Co; type: cell-based, human; conditions: human, CCD18Co non-malignant fibroblasts, 72 h treatment, mean n = 3, SD 5-10%
Description: as §1, §2, §3

[6] = Homo sapiens, HT-29, 72 h treatment
[7] = Homo sapiens, MCF7, 72 h treatment

SMILES | selectivity index 1 (SI 1) [1] | IC50 [1] | selectivity index 2 (SI 2) (A549 (lung carcinoma)) | IC50 (A549 (lung carcinoma)) | IC50 [2] | resistance index (RI) [2] | IC50 ([3]; 72 h treatment) | IC50 (MCF7 (breast carcinoma); 72 h treatment) | IC50 [4] | tumor cell selectivity, in words ([1]; tumor cells vs non-malignant fibroblasts CCD18Co) | drug resistance in the A2780/A2780cis model, in words ([2]; A2780cis vs A2780) | IC50 ([1]; Homo sapiens, A2780) | IC50 (A549 (lung carcinoma); Homo sapiens, A549) | IC50 ([2]; Homo sapiens, A2780cis) | IC50 [3, 6] | IC50 (MCF7 (breast carcinoma); [7]) | IC50 at 72 h [5] | resistance index (RI) ([2]; listed as doxorubicin)
C=C1C[C@@]23CC[C@H]4[C@@](C)(CCC[C@@]4(C)C(=O)OCCCBr)[C@@H]2CC[C@]1(O)C3 [Compound 14, 3-Bromopropyl (4α) -13-hydroxykaur-16-en-18-oate] | 1.51 | 27.7 µM | 1.44 | 29 µM | 28.4 µM | 1.03 | 29.1 µM | 28.1 µM | 41.7 µM |  |  |  |  |  |  |  |  | 
C=C1C[C@@]23CC[C@H]4[C@@](C)(CCC[C@@]4(C)C(=O)OCCCC[n+]4ccc(/C=C/c5c[nH]c6ccccc56)cc4)[C@@H]2CC[C@]1(O)C3.[Br-] [Compound 24] | 53.96 | 0.24 µM | 4.74 | 2.76 µM | 0.28 µM | 1.13 | 0.88 µM | 0.58 µM | 13.1 µM | retained selectivity | able to reduce or even overcome drug resistance |  |  |  |  |  |  | 
C=C1C[C@@]23CC[C@H]4[C@@](C)(CCC[C@@]4(C)C(=O)OCCBr)[C@@H]2CC[C@]1(O)C3 [Compound 6, 2-Bromoethyl (4α)-13-Hydroxykaur-16-en-18-oate] | 1.70 | 24.8 µM | 0.51 | 83.4 µM | 28.1 µM | 1.13 | 30.6 µM | 29.4 µM | 42.2 µM |  |  |  |  |  |  |  |  | 
C=C1C[C@@]23CC[C@H]4[C@@](C)(CCC[C@@]4(C)C(=O)OCCC[n+]4cccc(/C=C/c5c[nH]c6ccccc56)c4)[C@@H]2CC[C@]1(O)C3.[Br-] [Compound 18] | 11.82 | 2.28 µM | 2.84 | 9.47 µM | 2.71 µM | 1.19 | 6.66 µM | 9.47 µM | 26.9 µM |  |  |  |  |  |  |  |  | 
CC12CCC3C(CCC4C(C)(C(=O)OCCC[n+]5cccc(C=Cc6c[nH]c7ccccc67)c5)CCCC34C)(CC1=O)C2.[Br-] (stereo not drawn) [Compound 19, 3-{3[(E)-2-(1H-Indol-3-yl)-ethenyl]-pyridinium-1-yl}-propyl (4α, 8β, 13β) 13-Methyl-16-oxo-17-norkauran-18-oate Bromide] | 15.60 | 0.99 µM | 1.38 | 11.2 µM | 1.93 µM | 1.94 | 5.05 µM | 2.5 µM | 15.5 µM |  |  |  |  |  |  |  |  | 
CC12CCC3C(CCC4C(C)(C(=O)OCCCC[n+]5ccccc5C=Cc5c[nH]c6ccccc56)CCCC34C)(CC1=O)C2.[Br-] (stereo not drawn) [Compound 29, 4-{2-[(E)-2-(1H-Indol-3-yl)ethenyl]pyridinium-1-yl}-butyl (4α, 8β, 13β) 13-Methyl-16-oxo-17-norkauran-18-oate Bromide] | 17.61 | 1.06 µM | 1.88 | 9.86 µM | 3.22 µM | 3.05 | 3.81 µM | 2.05 µM | 18.6 µM |  |  |  |  |  |  |  |  | 
CC12CCC3C(CCC4C(C)(C(=O)OCC[n+]5ccc(C=Cc6c[nH]c7ccccc67)cc5)CCCC34C)(CC1=O)C2.[Br-] (stereo not drawn) [Compound 9, 2-{4-[(E)-2-(1H-Indol-3-yl)-ethenyl]pyridinium-1-yl}-ethyl (4α, 8β, 13β) 13-Methyl-16-oxo-17-norkauran-18-oate Bromide] | 13.96 | 0.93 µM | 1.42 | 9.09 µM | 1.54 µM | 1.66 | 1.56 µM | 1.08 µM | 13 µM |  |  |  |  |  |  |  |  | 
C[C@@]12CC[C@@H]3[C@@](CC[C@H]4[C@@]3(C)CCC[C@@]4(C)C(=O)OCCBr)(CC1=O)C2 [Compound 7, 2-Bromoethyl (4α, 8β, 13β) 13-Methyl-16-oxo-17-norkauran-18-oate] | 3.26 | 19.1 µM | 1.94 | 32.1 µM | 28.7 µM | 1.50 | 16.1 µM | 11.8 µM | 62.3 µM |  |  |  |  |  |  |  |  | 
C(=C\c1c[nH]c2ccccc12)/c1cccnc1 [Compound 4, 3-[(E)-2-Pyridin-3-yl-ethenyl]-1H-indole] | 77.40 |  | 5.50 |  |  | 17.97 |  |  |  |  |  | 1.17 µM | 16.4 µM | 21 µM | 7.83 µM | 5.18 µM | 90.3 µM | 
C=C1C[C@@]23CC[C@H]4[C@@](C)(CCC[C@@]4(C)C(=O)OCCCC[n+]4cccc(/C=C/c5c[nH]c6ccccc56)c4)[C@@H]2CC[C@]1(O)C3.[Br-] [Compound 26, 4-{3-[(E)-2-(1H-Indol-3-yl)-ethenyl]-pyridinium-1-yl}butyl (4α)-13-Hydroxykaur-16-en-18-oate Bromide] | 9.14 | 1.28 µM | 1.69 | 6.94 µM | 1.82 µM | 1.42 | 2.43 µM | 1.98 µM | 11.7 µM |  |  |  |  |  |  |  |  | 
C=C1C[C@@]23CC[C@H]4[C@@](C)(CCC[C@@]4(C)C(=O)OCC[n+]4ccc(/C=C/c5c[nH]c6ccccc56)cc4)[C@@H]2CC[C@]1(O)C3.[Br-] [Compound 8, 2-{4-[(E)-2-(1H-Indol-3-yl)ethenyl]-pyridinium-1-yl}-ethyl (4α)-13-Hydroxykaur-16-en-18-oate Bromide] | 5.87 | 2.01 µM | 1.34 | 8.82 µM | 1.86 µM | 0.92 | 1.81 µM | 1.81 µM | 11.8 µM |  |  |  |  |  |  |  |  | 
C=C1C[C@@]23CC[C@H]4[C@@](C)(CCC[C@@]4(C)C(=O)OCCC[n+]4ccccc4/C=C/c4c[nH]c5ccccc45)[C@@H]2CC[C@]1(O)C3.[Br-] [Compound 20, 3-{2-[(E)-2-(1H-Indol-3-yl)-ethenyl]-pyridinium-1-yl}-propyl (4α)-13-Hydroxykaur-16-en-18-oate bromide] | 10.73 | 1.81 µM | 1.55 | 12.6 µM | 2.7 µM | 1.49 | 6.11 µM | 1.85 µM | 19.4 µM |  |  |  |  |  |  |  |  | 
CC12CCC3C(CCC4C(C)(C(=O)OCCCCBr)CCCC34C)(CC1=O)C2 (stereo not drawn) [Compound 23, 4-Bromobutyl (4α, 8β, 13β) 13-Methyl-16-oxo-17-norkauran-18-oate] | 2.40 | 13 µM | 0.91 | 34.3 µM | 29.1 µM | 2.23 | 24.6 µM | 18.4 µM | 31.3 µM |  |  |  |  |  |  |  |  | 
COc1cccc2c1C(=O)c1c(O)c3c(c(O)c1C2=O)C[C@@](O)(C(=O)CO)C[C@@H]3O[C@H]1C[C@H](N)[C@H](O)[C@H](C)O1 [DOX, doxorubicin, reference compound] | 32.7 |  | 13.9 |  |  | 14.7 |  |  |  |  |  | 0.007 µM | 0.017 µM | 0.109 µM | 0.098 µM | 0.083 µM | 0.242 µM | approximately 14
